Assays:
[1] = test system: human fibroblast cells (MRC-5); test: Resazurin cell viability assay, dark toxicity; assay type: cell-based; details: MRC5, MRC-5, dark
Experimental: (§1) (100 U ml−1), streptomycin (100 U ml−1), and 1% L-glutamine. The murine fibrosarcom a (MCA205) cells were cultured in RPMI 1640 medium with 10% fetal bovine serum (FBS), penicillin (100 U ml−1), streptomycin (100 U ml−1), and 1% L-glutamine. All cells were incubated at 37 °C in a humidified atmosphere with 5 % CO2.
(§2) Normoxia. The in vitro viability of cells exposed to the complexes was determined using a resazurin assay. C ells were seeded in 96-well plates at densities of 4,000 cells/well for CT26, MC A205 and U-87 MG cells, and 8,000 cells/well for MRC-5 and NIH/3T3 cells. A fter 24 h of growth at 37 °C wit h 5% CO2, the medium was replaced with fresh medium containing various concentrations of the compounds . Following a 4- h incubation in the dark, the medium was refres hed , and the plates were exposed to irradiation usinga LUM OS -BIO photoreactor (At las Photonics).N on- ir rad iated plates were similarly refr eshed with medium and kept in the dark for the same duration. After a 40- h r ecov ery period, a f reshly pr epar ed resazurin solution (0.2 mg/mL) was added to each well, and the plates were left in the dark for 4 h before analysis on a B i o Te k Cytation 5 Cell Imaging Multimode Reader (Agil ent Technologies).
(§3) Hypoxia.Hypoxia cells were from well -grown normoxia cells and cultured for at least two weeks before use. […]

[2] = test system: mouse fibroblast cells (NIH/3T3); test: Resazurin cell viability assay, dark toxicity; assay type: cell-based; details: NIH3T3, NIH/3T3, dark
Experimental: as §1, §2, §3

HMGB‐1 = test: Immunofluorescence staining of HMGB-1 (release) in MCA205 cells; assay type: cell-based, mouse; details: MCA205, PS at IC50, illumination at 740 nm
Experimental: We then used the corresponding IC50 values of each PS to evaluate their in vitro ICD induction on MCA205 cells. […] As a result, we chose Ce6 as the positive control for our subsequent in vivo tests on MCA205 cells.
Scientific, Catalog no.15 5411) at a d ensity of 8,00 0 cells p er well and cultu red fo r 24 h at 37 °C with 5 % CO2. T he cells wer e then treated with a solution of the compounds at a concentration corresponding to the IC50 for 4 h. After refreshing the medium, cells were subjected to irradiation and incubated for an additional 12 h. Subsequently, the cells were fix ed with 4% paraformaldehyde and immunostained with Anti- Calreticulin antibody (Abcam, Catalog no. ab2907) diluted 1/1000 at 4 °C overnight. Cells were then washed three times with PBS, treated with Goat Anti- Rabbit IgG H&L (Alexa […]
temperature in the dark, washed in PBS and treat ed with 10 µg/mL Hoechst for 15 min.
After a final wash, cells were analyzed by confocal microscopy as det ailed above.
Immunofluorescence st aining of HMGB-1
CT26 or MCA205 cells were seeded in Lab -Te k ® Chambered Coverglass System (Thermo Fisher Scientific, Catalog no.155411) at a density of 8,000 cells per well and cultured for 24 h at 37 °C with 5% CO2. The cells were then treated with a solution of the compounds at a concentration corresponding to the IC50 for 4 h. […]

C=Cc1c(C)c2cc3nc(c(CC(=O)O)c4[nH]c(cc5nc(cc1[nH]2)C(C)=C5CC)c(C)c4C(=O)O)[C@@H](CCC(=O)O)[C@@H]3C [Ce6, chlorin e6]
IC50 [1]: > 100 µM
IC50 [2]: > 100 µM
HMGB‐1 release (HMGB‐1): significantly promoted
